{"source": "paper PMC6522510", "about": "(Nature Communications, 2019)", "key": {"[1]": {"system": "MV4-11", "experiment": "Secondary dose-response HTS, Cell Titer Glo", "type": "cell-based, human"}, "[2]": {"system": "ML2", "experiment": "Secondary dose-response HTS, Cell Titer Glo", "type": "cell-based, human"}, "[3]": {"system": "MOLM-13", "experiment": "Secondary dose-response HTS, Cell Titer Glo", "type": "cell-based, human", "conditions": "secondary high-throughput screen, MOLM-13"}, "[4]": {"system": "CMK", "experiment": "Secondary dose-response HTS, Cell Titer Glo", "type": "cell-based, human", "conditions": "secondary high-throughput screen; CMK"}, "[5]": {"system": "MV4-11", "experiment": "cells", "design": "species or system AML cell lines (8); Secondary HTS, 10-point dose-response in triplicate, Cell Titer Glo viability, four-parameter fit EC50", "conditions": "Homo sapiens, MV4-11, 72 h, read-out: MV4-11"}, "[6]": {"system": "CHRF288-11", "experiment": "Secondary dose-response HTS, Cell Titer Glo", "type": "cell-based, human", "conditions": "secondary high-throughput screen; CHRF288-11"}, "[7]": {"system": "M07e", "experiment": "cells", "design": "species or system AML cell lines (8); Secondary HTS, 10-point dose-response in triplicate, Cell Titer Glo viability, four-parameter fit EC50", "conditions": "M-07e, 72 h, read-out: M07e"}, "[8]": {"conditions": "secondary high-throughput screen, MV4-11"}}, "note": "Like-named read-outs stand apart in the source and are kept apart here."}
{"smiles": "COc1ccc(C[C@H](NC(=O)[C@H](C)NC(=O)CN2CCOCC2)C(=O)N[C@@H](Cc2ccccc2)C(=O)C2(C)CO2)cc1", "note": "(stereo in doubt) [ONX-0914, reference compound]", "values": [{"measurement": "EC50", "setting": "[1]; secondary HTS, 72 h, average of triplicate, read-out: EC50 MV4-11", "result": 50, "unit": "nM"}, {"measurement": "EC50", "setting": "[2]; secondary HTS, 72 h, average of triplicate, read-out: EC50 ML2", "result": 40, "unit": "nM"}]}
{"smiles": "COc1cc(O)c2c(c1)/C=C/C[C@H](O)[C@H](O)C(=O)/C=C\\C[C@H](C)OC2=O", "note": "[(5Z)-7-OXOZEAENOL]", "values": [{"measurement": "average effective concentration, MV4-11", "setting": "[1]; [8]", "result": "Inactive"}, {"measurement": "average effective concentration, MOLM-13", "setting": "[3]", "result": "Inactive"}]}
{"smiles": "CNC(=O)c1ccccc1Sc1ccc2c(/C=C/c3ccccn3)n[nH]c2c1", "note": "[AXITINIB]", "values": [{"measurement": "EC50", "setting": "[1]; Homo sapiens, secondary high-throughput screen, MV4-11, read-out: average effective concentration, MV4-11", "result": 1100, "unit": "nM"}]}
{"smiles": "Cn1cccc1/C=C1\\C(=O)NC(=O)c2ccccc21", "note": "[BYK 204165]", "values": [{"measurement": "average effective concentration, CMK", "setting": "[4]", "result": "Inactive"}]}
{"smiles": "COc1ccc(-c2nc(N3CCOCC3)c3sc(CN(C)c4ncc(C(=O)NO)cn4)cc3n2)cn1", "note": "[CUDC-907]", "values": [{"measurement": "EC50", "setting": "[5]", "result": 0.21, "unit": "nM"}]}
{"smiles": "C[C@@H]1NC(=O)[C@H]2CCCN2C(=O)[C@H](CCCCCC(=O)[C@@H]2CO2)NC(=O)[C@@H](C)NC1=O", "note": "[HC TOXIN]", "values": [{"measurement": "average effective concentration, MV4-11", "setting": "[1]; [8]", "result": "Inactive"}, {"measurement": "average effective concentration, CMK", "setting": "[4]", "result": "Inactive"}]}
{"smiles": "CCNC(=O)C[C@@H]1N=C(c2ccc(Cl)cc2)c2cc(OC)ccc2-n2c(C)nnc21", "note": "[I-BET-762]", "values": [{"measurement": "average effective concentration, CMK", "setting": "[4]", "result": "Inactive"}, {"measurement": "average effective concentration, CHRF288-11", "setting": "[6]", "result": "Inactive"}]}
{"smiles": "O=C(c1ccc(Nc2nccc(-c3cc4ccccc4s3)n2)cc1)N1CCC(N2CCCC2)CC1", "note": "[IKK 16]", "values": [{"measurement": "average effective concentration, MV4-11", "setting": "[1]; [8]", "result": "Inactive"}, {"measurement": "average effective concentration, MOLM-13", "setting": "[3]", "result": "Inactive"}]}
{"smiles": "Cc1ccc(NCCCc2ccccc2)c(N)c1", "note": "[JSH-23]", "values": [{"measurement": "average effective concentration, MV4-11", "setting": "[1]; [8]", "result": "Inactive"}, {"measurement": "average effective concentration, MOLM-13", "setting": "[3]", "result": "Inactive"}]}
{"smiles": "CCN1CCN(CC(=O)Nc2ccc(-c3cccc4c(=O)cc(N5CCOCC5)oc34)c3sc4ccccc4c23)CC1", "note": "[KU-0060648]", "values": [{"measurement": "average effective concentration, MV4-11", "setting": "[1]; [8]", "result": "Inactive"}]}
{"smiles": "CO[C@@H]1[C@H](N(C)C(=O)c2ccccc2)C[C@H]2O[C@]1(C)n1c3ccccc3c3c4c(c5c6ccccc6n2c5c31)C(=O)NC4", "note": "[MIDOSTAURIN]", "values": [{"measurement": "EC50", "setting": "[3]; Homo sapiens, read-out: average effective concentration, MOLM-13", "result": 65, "unit": "nM"}, {"measurement": "EC50", "setting": "[2]; Homo sapiens, secondary high-throughput screen, ML-2, read-out: average effective concentration, ML-2", "result": 17, "unit": "nM"}]}
{"smiles": "CO[C@H](C(=O)[C@@H](O)[C@@H](C)O)[C@@H]1Cc2cc3cc(O[C@H]4C[C@@H](O[C@H]5C[C@@H](O)[C@H](O)[C@@H](C)O5)[C@H](O)[C@@H](C)O4)c(C)c(O)c3c(O)c2C(=O)[C@H]1O[C@H]1C[C@@H](O[C@H]2C[C@@H](O[C@H]3C[C@](C)(O)[C@H](O)[C@@H](C)O3)[C@@H](O)[C@@H](C)O2)[C@H](O)[C@@H](C)O1", "note": "[MITHRAMYCIN A]", "values": [{"measurement": "EC50", "setting": "[7]", "result": "> 10000", "unit": "nM"}]}
{"smiles": "O=C1c2c(O)ccc(O)c2C(=O)c2c(NCCNCCO)ccc(NCCNCCO)c21", "note": "[MITOXANTHRONE]", "values": [{"measurement": "EC50", "setting": "[2]; secondary high-throughput screen, ML-2, read-out: average effective concentration, ML-2", "result": 240, "unit": "nM"}]}
{"smiles": "C=CCn1c(=O)c2cnc(Nc3ccc(N4CCN(C)CC4)cc3)nc2n1-c1cccc(C(C)(C)O)n1", "note": "[MK-1775]", "values": [{"measurement": "EC50", "setting": "[7]", "result": "> 10000", "unit": "nM"}]}
{"smiles": "CC(C)C(=O)SCCCCCCC(=O)Nc1nc(-c2ccccc2)cs1", "note": "[NCH 51]", "values": [{"measurement": "average effective concentration, MV4-11", "setting": "[1]; [8]", "result": "Inactive"}, {"measurement": "average effective concentration, CMK", "setting": "[4]", "result": "Inactive"}]}
{"smiles": "CNC(=O)c1ccccc1Nc1nc(Nc2ccc(N3CCOCC3)cc2OC)ncc1Cl", "note": "[NVP-TAE226]", "values": [{"measurement": "average effective concentration, MV4-11", "setting": "[1]; [8]", "result": "Inactive"}]}
